According to ChEMBL document CHEMBL1134585, “New 3'-azido-3'-deoxythymidin-5'-yl O-(4-hydroxyalkyl or -alkenyl or -alkylepoxide) carbonate prodrugs: synthesis and anti-HIV evaluation” (J Med Chem, 2001):

Experiments:
[1] = half life time required for 50% hydrolysis of prodrugs to AZT at 37 degrees upon incubation in normal human serum(NHS); format: ADME
[2] = test system: MT4; test: Conc. required to inhibit the cytopathicity on HIV-1 by 50% on MT-4 cells; format: functional, cell-based; settings: Homo sapiens
[3] = species on record: Homo sapiens; test: Conc. required to inhibit HIV-1 replication on PBMCs by 50%; format: functional, organism-based
[4] = half life time required for 50% hydrolysis of prodrugs to AZT at 37 degrees upon incubation in Phosphate buffer saline(PBS), (6% of AZT was released); format: ADME
[5] = test system: MT4; test: Conc. required to cause 50% death of uninfected MT-4 cells; format: functional; settings: Homo sapiens
[6] = species on record: Homo sapiens; test: Conc. required to cause 50% death of uninfected PBMCs; format: functional
[7] = Partition coefficient (logP); format: physicochemical; settings: octanol/water
[8] = half life time required for 50% hydrolysis of prodrugs to AZT at 37 degrees upon incubation in Phosphate buffer saline(PBS), (8% of AZT was released); format: ADME
[9] = half life time required for 50% hydrolysis of prodrugs to AZT at 37 degrees upon incubation in Phosphate buffer saline(PBS), (8 % of AZT was released); format: ADME
[10] = test system: MT4; test: Conc. required to inhibit the cytopathicity of HIV-1 by 50% on MT-4 cells; format: functional, cell-based; settings: Homo sapiens
[11] = half life time required for 50% hydrolysis of prodrugs to AZT at 37 degrees upon incubation in Phosphate buffer saline(PBS), (% of AZT was released); format: ADME
[12] = half life time required for 50% hydrolysis of prodrugs to AZT at 37 degrees upon incubation in Phosphate buffer saline(PBS), (0% of AZT was released); format: ADME

SMILES	T1/2 [1] [min]	EC50 [2] [nM]	EC50 [3] [nM]	CC50 [5] [nM]	CC50 [6] [nM]	logP [7]	also measured
Cc1cn(C2CC(N=[N+]=[N-])C(COC(=O)OCCCCO)O2)c(=O)[nH]c1=O (centres undefined)	30	6	31	262000	> 20000		T1/2 [4]: > 1440 min
Cc1cn([C@H]2C[C@H](N=[N+]=[N-])[C@@H](COC(=O)OC/C=C\CO)O2)c(=O)[nH]c1=O	45	18	52	179000	> 20000	0.59	T1/2 [8]: > 1440 min
Cc1cn(C2CC(N=[N+]=[N-])C(COC(=O)OCCCCCCO)O2)c(=O)[nH]c1=O (centres undefined)	7						
Cc1cn([C@H]2C[C@H](N=[N+]=[N-])[C@@H](CO)O2)c(=O)[nH]c1=O [ZIDOVUDINE]		12	56	42000	15000	0.88	
Cc1cn(C2CC(N=[N+]=[N-])C(COC(=O)OCCCO)O2)c(=O)[nH]c1=O (centres undefined)	10						
Cc1cn(C2CC(N=[N+]=[N-])C(COC(=O)OCCO)O2)c(=O)[nH]c1=O (centres undefined)	< 1						
Cc1cn(C2CC(N=[N+]=[N-])C(COC(=O)OCCCCCO)O2)c(=O)[nH]c1=O (centres undefined)	16						
Cc1cn([C@H]2C[C@H](N=[N+]=[N-])[C@@H](COC(=O)OC[C@H]3O[C@H]3CO)O2)c(=O)[nH]c1=O	80	13	103	159000	> 20000	0.47	T1/2 [9]: > 1440 min
Cc1cn([C@H]2C[C@H](N=[N+]=[N-])[C@@H](COC(=O)OC/C=C/CO)O2)c(=O)[nH]c1=O	26		66	162000	> 20000	-0.59	EC50 [10]: 8 nM; T1/2 [11]: > 1440 min
Cc1cn(C2CC(N=[N+]=[N-])C(COC(=O)OCCCCCCCCO)O2)c(=O)[nH]c1=O (centres undefined)	2						
CCCCOC(=O)OCC1OC(n2cc(C)c(=O)[nH]c2=O)CC1N=[N+]=[N-] (centres undefined)	9						T1/2 [12]: > 1440 min
